According to ChEMBL document CHEMBL3507680, “University of Dundee, Gates Library screen for HepG2 cell viability”:

Assay: Human HepG2 cell viability assay in 384 well format
Type: toxicity, cell-based
Parameters: dose 125 nL, time 70.5 hour; concentration not given beside the values
Details: HepG2 cells, read-out: Inhibition

SMILES	cytotoxicity at 70.5 h [%]
Cc1cccc(NC(=O)CCNCc2c(C)nn(C)c2N(C)C)n1	2.77
c1cc(CCNc2ncc(-c3cnccn3)c(C3CC3)n2)ccn1	-5.03
COCCc1nc(CN2CC(C)(c3ccccc3)CCC2=O)no1 (configuration not stated)	-2.58
O=C(c1ccco1)N1CCC2(CCC(=O)N2Cc2ccncc2)CC1	-2.64
CCc1cnc(N)nc1NCc1ccc(OC)cc1OC	-0.135
O=C(COC[C@H]1CC[C@H]2[C@H](CCN2c2ncccn2)O1)N1CCCC1	-3.63
O=C(NCCOc1cccc(Cl)c1)C1CC(=O)N(CC2CC2)C1 (configuration not stated)	40.6
Cc1ccsc1C(=O)N1CCC2(CC(C(=O)N(C)C(C)C)=NO2)C1 (configuration not stated)	-2.65
O=C(NCCCn1cnnc1)C1CCCN(C2CCCC2)C1 (configuration not stated)	26.7
COCC(=O)N1CCC2(CCCN(Cc3ccc(Cl)cc3)CC2)CC1	44.6
Cc1cc(C)nc(Nc2cc(C)nc(C3CCN(C(=O)CO)C3)n2)n1 (configuration not stated)	-7.3
CN(C)CCCNC(=O)c1ccc(N(C)S(C)(=O)=O)cc1Cl	-5.53
Cc1cc(C2CCCN(CCCS(=O)(=O)c3ccccc3)C2)n[nH]1 (configuration not stated)	-14
CCc1cnc(CN(C)C2CCN(Cc3nnc(C4CC4)n3C)C2)o1 (configuration not stated)	-2.36
COC(=O)c1cccc(C(=O)N2CCN(c3cccc(C)c3C)CC2)n1	-14.1
CC1CN(c2ccc(CNC(=O)NCCO)cn2)CCO1 (configuration not stated)	-8.22
Cc1ccc(C(=O)Nc2cn[nH]c2)cc1	-6.42
O=C(c1cc(CC2(NCC3CCCCC3)COC2)no1)N1CCCCC1	-6.68
COC(=O)CN(C(=O)c1cc(C)c(F)cc1F)c1cccc(C)n1	-5.14

SMILES	cytotoxicity at 70.5 h [%]
Cc1csc(N2CCCN(C(=O)Cc3cccs3)CC2)n1	-5.57
COCCN(C/C=C/c1ccccc1)Cc1nccs1	2.82
CN1CCCN(C(=O)c2cnc(C(C)(C)C)nc2O)CC1	0.369
CC1(C)[C@H]2CC=C(CN3CCCn4nc(C(=O)NCCO)cc4C3)[C@@H]1C2	-4.77
COc1ccc(CNCc2ccnc(N3CCCCC3)c2)cc1OC	-4.98
CC(C)CCN1CC2(CCCN(C(=O)CNC(=O)N(C)C)C2)CCC1=O (configuration not stated)	-10.1
COc1cc(NC(=O)NC2CC2)ccc1N1CCOC1=O	-8.49
Cc1ccc(C(C(=O)N(C)CCc2cn[nH]c2)N(C)C)cc1 (configuration not stated)	-8.45
CCCS(=O)(=O)N1CCC(n2nc(-c3cc(C)oc3C)ccc2=O)CC1	8.97
COc1ccc(OCc2nc3cc4c(cc3c(=O)o2)OCCCO4)cc1	-5.23
CN(C)c1ccc(CNC(=O)Nc2ccc(S(C)(=O)=O)nc2)cc1	-7.69
Cc1cccc2[nH]c(C3CCCN(Cc4ccccc4C(=O)O)C3)nc12 (configuration not stated)	8.18
c1cc(CN2CC[C@@H]3CN(c4cncnc4)C[C@@H]3C2)ccn1	-6.08
Cc1ccsc1C(=O)NCCCn1nc2ccccn2c1=O	-4.38
CN1CCc2[nH]cnc2C12CCN(Cc1ccc(S(C)(=O)=O)cc1)CC2	-7.39
COC1CCCN(C2CCN(c3cccc(-c4csc(C)n4)c3)CC2)C1 (configuration not stated)	-1.69
O=C(Nc1ccc2c(c1)OCO2)N1CCN(CCc2ccccc2)CC1	-6.84
CN(C)CC(=O)N1CCc2sc(C(=O)N3CCN(C)CC3)cc21	-2.73
Cn1cnc2ccc(NC(=O)CC3CCN(S(C)(=O)=O)CC3)cc21	12

SMILES	cytotoxicity at 70.5 h [%]
CN(C)C(=O)c1nn(C)c2c1CN(Cc1ccc(F)cc1)C2	-6.32
c1ccc(CN2CCc3ncnc(-c4ccoc4)c3CC2)nc1	-5.45
CC(=O)NCC(=O)NC1CCc2nccn2C1 (configuration not stated)	7.09
Cc1cc(O)nc(C2CCCN(CCO)C2)n1 (configuration not stated)	-1.84
Cc1cc(Cc2ccccc2)cc(C2CCCNC2)n1 (configuration not stated)	-5.23
Cc1ccc(CNC(=O)c2c[nH]nc2NC(=O)C2COCCO2)cc1 (configuration not stated)	-0.405
Cc1ccc(CN2CCN(C(=O)CCc3nc(Cl)n[nH]3)CC2=O)cc1	-14.2
O[C@@H]1C[C@@H](c2nc(-c3ccccc3)no2)N(C2CCOCC2)C1	-3.47
C[C@@H]1CN(C(=O)c2nc3sccn3c2-c2ncc[nH]2)C[C@H](C)O1	-7.22
Cc1cccc(C(=O)N2CC(=O)N(c3ccccc3Cl)CC2C)n1 (configuration not stated)	49.8
Cc1nc(C2CCCN2C(=O)CCc2ccc(F)cc2)ncc1C(N)=O (configuration not stated)	-10.3
O=C(CCC1CCCO1)NCc1ccccc1Cn1cncn1 (configuration not stated)	-9.42
NCCC(=O)N1CCC2(CC1)CN(C(=O)c1ccc(Cl)cc1)CCO2	-12.1
Cc1nc(CN(C)Cc2cc3c(cc2OC(F)F)OCO3)cs1	-7.91
Cc1noc(C)c1S(=O)(=O)NC(=O)COc1ccc(C(C)C)cc1	-9.11
Cc1ccsc1C(Cn1ccnc1-c1ccccc1C(=O)O)N(C)C (configuration not stated)	19.1
O=C(CCC(=O)N1CCNC(=O)C1c1cccc(F)c1)NC1CCCC1 (configuration not stated)	-6.2
Cn1ccnc1CN1CCN(CC(=O)NCC(F)(F)F)CC1	-10.6
CCC(=O)Nc1c(C)nn(COc2cccc(F)c2)c1C	-2.04
